# ChEMBL document CHEMBL1201862, “PubChem BioAssay data set” (2004)
#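 Dose response: 5 concentrations. Exposure: 48 h. Format: 96-well plates. Endpoint: linear interpolation; highest concentration if not reached. At the GI50, growth is halved.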 Calls of active or inactive are those of the source. Rule as the data show it: active = GI50 up to about 1.1 µM and inactive = higher.
# Legend:
# Test in all cases: NCI tumour cell line growth inhibition, 48 h
# MDA-MB-231 = test system: MDA-MB-231
# SK-MEL-28 = test system: SK-MEL-28
# CAKI-1 = test system: CAKI-1
# SF-268 = test system: SF-268
# SF-295 = test system: SF-295
# HCC 2998 = test system: HCC 2998
# DU-145 = test system: DU-145
# UACC-257 = test system: UACC-257
# RPMI-8226 = test system: RPMI-8226
# K562 = test system: K562
# NCI/ADR-RES = test system: NCI/ADR-RES
# U-251 = test system: U-251
# NCI-H460 = test system: NCI-H460
# A549 = test system: A549
# M14 = test system: M14
# HL-60 = test system: HL-60
# ACHN = test system: ACHN
# EKVX = test system: EKVX
# IGROV-1 = test system: IGROV-1
# MOLT-4 = test system: MOLT-4
# NCI-H23 = test system: NCI-H23
# LOX IMVI = test system: LOX IMVI
# OVCAR-5 = test system: OVCAR-5
# T47D = test system: T47D
# HCT-116 = test system: HCT-116
# SNB-75 = test system: SNB-75
# BT-549 = test system: BT-549
# PC-3 = test system: PC-3
# SK-MEL-5 = test system: SK-MEL-5
# OVCAR-8 = test system: OVCAR-8
# CCRF-CEM = test system: CCRF-CEM
# UO-31 = test system: UO-31
# HOP-62 = test system: HOP-62
# RXF 393 = test system: RXF 393
# HOP-92 = test system: HOP-92
# Hs-578T = test system: Hs-578T
# SW-620 = test system: SW-620
# KM12 = test system: KM12
# COLO 205 = test system: COLO 205
# Malme-3M = test system: Malme-3M
# NCI-H226 = test system: NCI-H226
# OVCAR-3 = test system: OVCAR-3
# UACC-62 = test system: UACC-62
# MDA-MB-435 = test system: MDA-MB-435
# SK-OV-3 = test system: SK-OV-3
# A498 = test system: A498
# SF-539 = test system: SF-539
# 786-0 = test system: 786-0
# TK-10 = test system: TK-10
# HT-29 = test system: HT-29
# SK-MEL-2 = test system: SK-MEL-2
# SNB-19 = test system: SNB-19
# OVCAR-4 = test system: OVCAR-4
# SN12C = test system: SN12C
# HCT-15 = test system: HCT-15
# MCF7 = test system: MCF7
# NCI-H522 = test system: NCI-H522
# SR = test system: SR
smiles,measurement,setting,value
O=C(OCc1ccccc1)c1nc2ccccc2n1S(=O)(=O)c1ccccc1,GI50,MDA-MB-231,> 100 µM (inactive)
same,GI50,SK-MEL-28,> 100 µM (inactive)
same,GI50,CAKI-1,> 100 µM (inactive)
same,GI50,SF-268,> 100 µM (inactive)
same,GI50,SF-295,> 100 µM (inactive)
same,GI50,HCC 2998,> 100 µM (inactive)
same,GI50,DU-145,> 100 µM (inactive)
same,GI50,UACC-257,> 100 µM (inactive)
same,GI50,RPMI-8226,> 100 µM (inactive)
same,GI50,K562,> 100 µM (inactive)
same,GI50,NCI/ADR-RES,> 100 µM (inactive)
same,GI50,U-251,> 100 µM (inactive)
same,GI50,NCI-H460,> 100 µM (inactive)
same,GI50,A549,> 100 µM (inactive)
same,GI50,M14,> 100 µM (inactive)
same,GI50,HL-60,> 100 µM (inactive)
same,GI50,ACHN,> 100 µM (inactive)
same,GI50,EKVX,> 100 µM (inactive)
same,GI50,IGROV-1,> 100 µM (inactive)
same,GI50,MOLT-4,> 100 µM (inactive)
same,GI50,NCI-H23,> 100 µM (inactive)
same,GI50,LOX IMVI,> 100 µM (inactive)
same,GI50,OVCAR-5,> 100 µM (inactive)
same,GI50,T47D,59.2 µM (inactive)
same,GI50,HCT-116,> 100 µM (inactive)
same,GI50,SNB-75,> 100 µM (inactive)
same,GI50,BT-549,> 100 µM (inactive)
same,GI50,PC-3,> 100 µM (inactive)
same,GI50,SK-MEL-5,80.4 µM (inactive)
same,GI50,OVCAR-8,> 100 µM (inactive)
same,GI50,CCRF-CEM,> 100 µM (inactive)
same,GI50,UO-31,> 100 µM (inactive)
same,GI50,HOP-62,> 100 µM (inactive)
same,GI50,RXF 393,> 100 µM (inactive)
same,GI50,HOP-92,> 100 µM (inactive)
same,GI50,Hs-578T,> 100 µM (inactive)
same,GI50,SW-620,> 100 µM (inactive)
same,GI50,KM12,> 100 µM (inactive)
same,GI50,COLO 205,88.7 µM (inactive)
same,GI50,Malme-3M,88.9 µM (inactive)
same,GI50,NCI-H226,> 100 µM (inactive)
same,GI50,OVCAR-3,> 100 µM (inactive)
same,GI50,UACC-62,> 100 µM (inactive)
same,GI50,MDA-MB-435,> 100 µM (inactive)
same,GI50,SK-OV-3,> 100 µM (inactive)
same,GI50,A498,> 100 µM (inactive)
same,GI50,SF-539,> 100 µM (inactive)
same,GI50,786-0,> 100 µM (inactive)
same,GI50,TK-10,> 100 µM (inactive)
same,GI50,HT-29,> 100 µM (inactive)
same,GI50,SK-MEL-2,> 100 µM (inactive)
same,GI50,SNB-19,> 100 µM (inactive)
same,GI50,OVCAR-4,> 100 µM (inactive)
same,GI50,SN12C,> 100 µM (inactive)
same,GI50,HCT-15,> 100 µM
C=C(C)CC1(O[Si](C)(C)C)C(=O)C(OCC)=C1OCC (stereo not drawn),GI50,MDA-MB-231,> 100 µM (inactive)
same,GI50,SK-MEL-28,> 100 µM (inactive)
same,GI50,CAKI-1,> 100 µM (inactive)
same,GI50,SF-268,> 100 µM (inactive)
same,GI50,SF-295,> 100 µM (inactive)
same,GI50,DU-145,> 100 µM (inactive)
same,GI50,UACC-257,> 100 µM (inactive)
same,GI50,NCI/ADR-RES,> 100 µM (inactive)
same,GI50,U-251,> 100 µM (inactive)
same,GI50,NCI-H460,> 100 µM (inactive)
same,GI50,A549,> 100 µM (inactive)
same,GI50,M14,> 100 µM (inactive)
same,GI50,HL-60,> 100 µM (inactive)
same,GI50,ACHN,> 100 µM (inactive)
same,GI50,EKVX,> 100 µM (inactive)
same,GI50,IGROV-1,> 100 µM (inactive)
same,GI50,MOLT-4,> 100 µM (inactive)
same,GI50,NCI-H23,> 100 µM (inactive)
same,GI50,LOX IMVI,> 100 µM (inactive)
same,GI50,OVCAR-5,> 100 µM (inactive)
same,GI50,T47D,> 100 µM (inactive)
same,GI50,HCT-116,> 100 µM (inactive)
same,GI50,SNB-75,> 100 µM (inactive)
same,GI50,MCF7,> 100 µM (inactive)
same,GI50,BT-549,> 100 µM (inactive)
same,GI50,PC-3,> 100 µM (inactive)
same,GI50,SK-MEL-5,> 100 µM (inactive)
same,GI50,OVCAR-8,> 100 µM (inactive)
same,GI50,CCRF-CEM,> 100 µM (inactive)
same,GI50,UO-31,> 100 µM (inactive)
same,GI50,HOP-62,> 100 µM (inactive)
same,GI50,HOP-92,> 100 µM (inactive)
same,GI50,Hs-578T,> 100 µM (inactive)
same,GI50,SW-620,> 100 µM (inactive)
same,GI50,KM12,> 100 µM (inactive)
same,GI50,NCI-H522,> 100 µM (inactive)
same,GI50,COLO 205,> 100 µM (inactive)
same,GI50,Malme-3M,> 100 µM (inactive)
same,GI50,NCI-H226,> 100 µM (inactive)
same,GI50,OVCAR-3,> 100 µM (inactive)
same,GI50,UACC-62,> 100 µM (inactive)
same,GI50,MDA-MB-435,> 100 µM (inactive)
same,GI50,SK-OV-3,> 100 µM (inactive)
same,GI50,A498,> 100 µM (inactive)
same,GI50,SF-539,> 100 µM (inactive)
same,GI50,786-0,> 100 µM (inactive)
same,GI50,TK-10,> 100 µM (inactive)
same,GI50,HT-29,> 100 µM (inactive)
same,GI50,SK-MEL-2,> 100 µM (inactive)
same,GI50,SNB-19,> 100 µM (inactive)
same,GI50,OVCAR-4,> 100 µM (inactive)
same,GI50,SN12C,> 100 µM (inactive)
same,GI50,HCT-15,> 100 µM
CC(C)(CO)NC(=O)c1cccc(C(=O)NC(C)(C)CO)c1Br,GI50,MDA-MB-231,> 100 µM (inactive)
same,GI50,SK-MEL-28,> 100 µM (inactive)
same,GI50,CAKI-1,> 100 µM (inactive)
same,GI50,SF-268,> 100 µM (inactive)
same,GI50,SR,> 100 µM (inactive)
same,GI50,HCC 2998,> 100 µM (inactive)
same,GI50,DU-145,> 100 µM (inactive)
same,GI50,UACC-257,> 100 µM (inactive)
same,GI50,RPMI-8226,> 100 µM (inactive)
same,GI50,K562,> 100 µM (inactive)
same,GI50,NCI/ADR-RES,> 100 µM (inactive)
same,GI50,U-251,> 100 µM (inactive)
same,GI50,NCI-H460,> 100 µM (inactive)
same,GI50,A549,> 100 µM (inactive)
same,GI50,M14,> 100 µM (inactive)
same,GI50,HL-60,> 100 µM (inactive)
same,GI50,ACHN,> 100 µM (inactive)
same,GI50,EKVX,> 100 µM (inactive)
same,GI50,IGROV-1,> 100 µM (inactive)
same,GI50,MOLT-4,> 100 µM (inactive)
same,GI50,NCI-H23,> 100 µM (inactive)
same,GI50,LOX IMVI,> 100 µM (inactive)
same,GI50,OVCAR-5,> 100 µM (inactive)
same,GI50,T47D,> 100 µM (inactive)
same,GI50,HCT-116,> 100 µM (inactive)
same,GI50,SNB-75,32.3 µM (inactive)
same,GI50,MCF7,> 100 µM (inactive)
same,GI50,BT-549,> 100 µM (inactive)
same,GI50,PC-3,> 100 µM (inactive)
same,GI50,SK-MEL-5,> 100 µM (inactive)
same,GI50,OVCAR-8,> 100 µM (inactive)
same,GI50,UO-31,> 100 µM (inactive)
same,GI50,HOP-62,> 100 µM (inactive)
same,GI50,RXF 393,7.83 µM (inactive)
same,GI50,HOP-92,> 100 µM (inactive)
same,GI50,SW-620,> 100 µM (inactive)
same,GI50,KM12,> 100 µM (inactive)
same,GI50,COLO 205,> 100 µM (inactive)
same,GI50,Malme-3M,> 100 µM (inactive)
same,GI50,NCI-H226,> 100 µM (inactive)
same,GI50,UACC-62,> 100 µM (inactive)
same,GI50,MDA-MB-435,> 100 µM (inactive)
same,GI50,SF-539,> 100 µM (inactive)
same,GI50,786-0,> 100 µM (inactive)
same,GI50,TK-10,> 100 µM (inactive)
same,GI50,HT-29,> 100 µM (inactive)
same,GI50,SK-MEL-2,> 100 µM (inactive)
same,GI50,SNB-19,> 100 µM (inactive)
same,GI50,OVCAR-4,> 100 µM (inactive)
same,GI50,HCT-15,> 100 µM
